Among the data in article PMC4709073, “Curiouser and Curiouser: The Macrocyclic Lactone, Abamectin, Is also a Potent Inhibitor of Pyrantel/Tribendimidine Nicotinic Acetylcholine Receptors of Gastro-Intestinal Worms” (PLoS ONE, 2016) are EC50 values, retold here.

Each structure is given as a SMILES string.

For this assay, the target named is T1, Ode-UNC-29:Ode-UNC-63:Ode-UNC-38 (Oesophagostomum dentatum, UniProt E5KIX9+V5J2B2+V5J336).
T1 construct: co-injected with Haemonchus contortus ancillary factors Hco-ric-3, Hco-unc-50, Hco-unc-74; clones from earlier work of the authors
T1 sequence (V5J2B2 21-497): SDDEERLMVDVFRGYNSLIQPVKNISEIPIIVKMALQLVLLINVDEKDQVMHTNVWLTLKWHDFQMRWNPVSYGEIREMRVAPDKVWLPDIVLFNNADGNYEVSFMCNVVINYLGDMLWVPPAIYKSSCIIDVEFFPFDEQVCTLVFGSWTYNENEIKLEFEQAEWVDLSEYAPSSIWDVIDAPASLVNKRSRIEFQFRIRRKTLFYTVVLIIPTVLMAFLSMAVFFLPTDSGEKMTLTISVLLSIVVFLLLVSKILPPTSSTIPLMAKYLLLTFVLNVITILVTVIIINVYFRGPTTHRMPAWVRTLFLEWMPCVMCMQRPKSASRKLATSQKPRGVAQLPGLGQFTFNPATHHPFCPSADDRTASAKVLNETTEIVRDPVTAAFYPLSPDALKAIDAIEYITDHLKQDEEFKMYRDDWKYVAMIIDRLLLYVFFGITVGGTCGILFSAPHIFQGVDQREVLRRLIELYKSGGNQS
T1 sequence (E5KIX9 22-507): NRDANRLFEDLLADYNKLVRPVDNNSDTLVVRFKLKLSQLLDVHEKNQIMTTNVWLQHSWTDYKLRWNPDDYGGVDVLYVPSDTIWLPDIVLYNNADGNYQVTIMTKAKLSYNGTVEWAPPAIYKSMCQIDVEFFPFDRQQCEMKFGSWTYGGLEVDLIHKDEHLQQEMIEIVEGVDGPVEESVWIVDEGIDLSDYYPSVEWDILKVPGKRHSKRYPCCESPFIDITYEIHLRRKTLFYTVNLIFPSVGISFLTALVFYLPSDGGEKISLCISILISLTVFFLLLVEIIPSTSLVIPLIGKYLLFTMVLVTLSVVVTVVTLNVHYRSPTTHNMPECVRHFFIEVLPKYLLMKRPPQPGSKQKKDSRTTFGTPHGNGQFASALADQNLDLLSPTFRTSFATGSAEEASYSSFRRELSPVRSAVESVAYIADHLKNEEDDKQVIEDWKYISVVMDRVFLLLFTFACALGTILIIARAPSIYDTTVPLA
T1 sequence (V5J336 21-507): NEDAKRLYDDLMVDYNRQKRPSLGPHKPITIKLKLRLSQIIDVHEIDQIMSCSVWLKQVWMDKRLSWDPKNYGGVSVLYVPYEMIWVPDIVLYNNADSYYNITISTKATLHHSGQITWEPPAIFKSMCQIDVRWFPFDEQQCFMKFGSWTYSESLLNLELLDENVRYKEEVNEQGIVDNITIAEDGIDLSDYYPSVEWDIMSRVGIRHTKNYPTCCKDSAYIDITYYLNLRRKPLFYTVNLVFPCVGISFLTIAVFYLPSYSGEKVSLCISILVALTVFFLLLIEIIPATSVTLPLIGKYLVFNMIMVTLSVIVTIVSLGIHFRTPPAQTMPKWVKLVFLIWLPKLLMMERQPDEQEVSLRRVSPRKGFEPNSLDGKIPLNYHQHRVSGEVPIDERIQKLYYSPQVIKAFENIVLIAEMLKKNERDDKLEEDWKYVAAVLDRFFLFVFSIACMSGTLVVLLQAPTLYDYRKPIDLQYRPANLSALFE
The assay can be described thus: two-electrode voltage clamp, Xenopus oocytes, agonist concentration-response, Hill fit. Format: cell-based. For orientation: In two-electrode clamp one electrode senses voltage and the other passes current.

A word on the EC50: it is the concentration needed to bring the measured effect to its halfway point. Read a high EC50 as a need for much substance.

In the case of `CN1CCCN=C1/C=C/c1cccs1` [pyrantel], it took 0.4 µM to reach a half-maximal effect (EC50).

As for `CC(=O)OCC[N+](C)(C)C` [acetylcholine], the midpoint of the response, the EC50, lay at 13 ± 1.6 µM.
